Source: ChEMBL document CHEMBL6121016, “Design, Synthesis, and Biological Evaluation of 1,3,4-Thiadiazole Derivatives as Novel Potent Peptide Deformylase Inhibitors for Combating Drug-Resistant Gram-Positive and -Negative Bacteria” (J Med Chem, 2025)
In brackets after ≈: the same amount, converted by molar mass.

Columns and labels:
Klebsiella pneumoniae [1] = experiment: Antibacterial activity against Klebsiella pneumoniae CICC 21611 after 16 to 18 hrs by broth microdilution method; assay type: functional; conditions: time 16-18 hrs
Peptide deformylase [2] = target: T1, Peptide deformylase (Staphylococcus aureus, UniProt P68826); experiment: Inhibition of Staphylococcus aureus PDF-Ni assessed as enzyme activity incubated for 30 min by fluorescamine method
T1 sequence (P68826 whole entry): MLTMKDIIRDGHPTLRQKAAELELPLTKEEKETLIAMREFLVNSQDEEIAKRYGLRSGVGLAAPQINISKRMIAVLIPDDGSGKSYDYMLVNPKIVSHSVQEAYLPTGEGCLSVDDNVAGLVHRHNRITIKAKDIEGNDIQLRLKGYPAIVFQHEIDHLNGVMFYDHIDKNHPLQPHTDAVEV

[3] = test system: Staphylococcus epidermidis; experiment: Antibacterial activity against Staphylococcus epidermidis after 16 to 18 hrs by broth microdilution method; assay type: functional; conditions: time 16-18 hrs
Peptide deformylase [4] = target: T2, Peptide deformylase (Escherichia coli, UniProt Q9JN24); experiment: Inhibition of Escherichia coli PDF-Ni assessed as enzyme activity incubated for 30 min by fluorescamine method
T2 sequence (Q9JN24 whole entry): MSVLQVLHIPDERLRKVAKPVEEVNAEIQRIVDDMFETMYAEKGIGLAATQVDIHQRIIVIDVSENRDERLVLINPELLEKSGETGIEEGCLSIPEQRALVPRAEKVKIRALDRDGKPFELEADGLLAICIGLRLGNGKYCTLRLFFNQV

Staphylococcus aureus [5] = experiment: Antibacterial activity against methicillin-susceptible Staphylococcus aureus ATCC 13709 after 16 to 18 hrs by broth microdilution method; assay type: functional; conditions: time 16-18 hrs
Escherichia coli [6] = experiment: Antibacterial activity against Escherichia coli ATCC 25922 after 16 to 18 hrs by broth microdilution method; assay type: functional; conditions: time 16-18 hrs
Staphylococcus aureus [7] = experiment: Antibacterial activity against methicillin-resistant Staphylococcus aureus Bio-090770 after 16 to 18 hrs by broth microdilution method; assay type: functional; conditions: time 16-18 hrs
Staphylococcus aureus [8] = experiment: Antibacterial activity against methicillin-susceptible Staphylococcus aureus ATCC 25923 after 16 to 18 hrs by broth microdilution method; assay type: functional; conditions: time 16-18 hrs
Staphylococcus aureus [9] = experiment: Antibacterial activity against methicillin-susceptible Staphylococcus aureus ATCC 29213 after 16 to 18 hrs by broth microdilution method; assay type: functional; conditions: time 16-18 hrs
Staphylococcus aureus [10] = experiment: Antibacterial activity against methicillin-resistant Staphylococcus aureus ATCC 33591 after 16 to 18 hrs by broth microdilution method; assay type: functional; conditions: time 16-18 hrs
Staphylococcus aureus [11] = experiment: Antibacterial activity against methicillin-resistant Staphylococcus aureus ATCC 43300 after 16 to 18 hrs by broth microdilution method; assay type: functional; conditions: time 16-18 hrs
Acinetobacter baumannii [12] = experiment: Antibacterial activity against Acinetobacter baumannii Bio 34235 after 16 to 18 hrs by broth microdilution method; assay type: functional; conditions: time 16-18 hrs
Acinetobacter baumannii [13] = experiment: Antibacterial activity against drug-resistant Acinetobacter baumannii Bio 53272 after 16 to 18 hrs by broth microdilution method; assay type: functional; conditions: time 16-18 hrs
[14] = Acute toxicity in KM mouse infected with drug-resistant Acinetobacter baumannii assessed as survival rate at 40 mg/kg; assay type: organism-based; conditions: in vivo
[15] = Acute toxicity in KM mouse infected with drug-resistant Acinetobacter baumannii assessed as pathological changes in lungs at 40 mg/kg by HE staining based analysis; assay type: organism-based; conditions: in vivo
[16] = Acute toxicity in KM mouse infected with drug-resistant Acinetobacter baumannii assessed as pathological changes in liver at 40 mg/kg by HE staining based analysis; assay type: organism-based; conditions: in vivo
[17] = Acute toxicity in KM mouse infected with drug-resistant Acinetobacter baumannii assessed as pathological changes in kidney at 40 mg/kg by HE staining based analysis; assay type: organism-based; conditions: in vivo
Escherichia coli [18] = experiment: Antibacterial activity against Escherichia coli ATCC 10663 after 16 to 18 hrs by broth microdilution method; assay type: functional; conditions: time 16-18 hrs
Escherichia coli [19] = experiment: Antibacterial activity against Escherichia coli ATCC 10661 after 16 to 18 hrs by broth microdilution method; assay type: functional; conditions: time 16-18 hrs
Staphylococcus aureus [20] = experiment: Bactericidal activity against methicillin-resistant Staphylococcus aureus assessed as bacteriostatic efficiency at 0.5 microg/mL incubated for 24 hrs by time killing analysis relative to control; assay type: functional; conditions: dose 0.5 µg/ml
Klebsiella pneumoniae [21] = experiment: Antibacterial activity against Klebsiella pneumoniae CICC 21092 after 16 to 18 hrs by broth microdilution method; assay type: functional; conditions: time 16-18 hrs
[22] = Cytotoxicity against human HEK293T cells assessed as cell viability at 3.125 to 100 uM incubated for 24 hrs by MTT assay; assay type: toxicity, cell-based, HEK-293T
[23] = Aqueous solubility of compound at 0.9% aqueous NaCl solution incubated for 2 hrs by UV spectrophotometry analysis; assay type: physicochemical
Escherichia coli [24] = experiment: Antibacterial activity against Escherichia coli ATCC 10668 after 16 to 18 hrs by broth microdilution method; assay type: functional; conditions: time 16-18 hrs
Acinetobacter baumannii [25] = experiment: Antibacterial activity against Acinetobacter baumannii Bio 53250 after 16 to 18 hrs by broth microdilution method; assay type: functional; conditions: time 16-18 hrs
Klebsiella pneumoniae [26] = experiment: Antibacterial activity against Klebsiella pneumoniae CICC 20093 after 16 to 18 hrs by broth microdilution method; assay type: functional; conditions: time 16-18 hrs
Acinetobacter baumannii [27] = experiment: Antibacterial activity against Acinetobacter baumannii Bio 120982 after 16 to 18 hrs by broth microdilution method; assay type: functional; conditions: time 16-18 hrs
Acinetobacter baumannii [28] = experiment: Antibacterial activity against Acinetobacter baumannii Bio 53272 after 16 to 18 hrs by broth microdilution method; assay type: functional; conditions: time 16-18 hrs
[29] = Cytotoxicity against human HeLa cells assessed as cell viability at 3.125 to 100 uM incubated for 24 hrs by MTT assay; assay type: toxicity, cell-based
Acinetobacter baumannii [30] = experiment: Antibacterial activity against Acinetobacter baumannii Bio 69680 after 16 to 18 hrs by broth microdilution method; assay type: functional; conditions: time 16-18 hrs
Acinetobacter baumannii [31] = experiment: Antibacterial activity against Acinetobacter baumannii Bio 24253 after 16 to 18 hrs by broth microdilution method; assay type: functional; conditions: time 16-18 hrs
[32] = Methemoglobin toxicity in human blood at 500 uM incubated for 6 hrs by MetHb content assay; assay type: tissue-based

Row | SMILES | MIC (Klebsiella pneumoniae [1]) [µg/mL] | MIC [3] [µg/mL] | MIC (Staphylococcus aureus [5]) [µg/mL] | MIC (Escherichia coli [6]) [µg/mL] | MIC (Staphylococcus aureus [7]) [µg/mL] | MIC (Staphylococcus aureus [8]) [µg/mL] | MIC (Staphylococcus aureus [9]) [µg/mL] | MIC (Staphylococcus aureus [10]) [µg/mL] | MIC (Staphylococcus aureus [11]) [µg/mL] | MIC (Acinetobacter baumannii [12]) [µg/mL] | MIC (Acinetobacter baumannii [13]) [µg/mL] | MIC (Escherichia coli [18]) [µg/mL] | MIC (Escherichia coli [19]) [µg/mL] | MIC (Klebsiella pneumoniae [21]) [µg/mL] | IC50 at 24 h [22] [µM] | MIC (Escherichia coli [24]) [µg/mL] | MIC (Acinetobacter baumannii [25]) [µg/mL] | MIC (Klebsiella pneumoniae [26]) [µg/mL] | MIC (Acinetobacter baumannii [27]) [µg/mL] | MIC (Acinetobacter baumannii [28]) [µg/mL] | other results
1 | CCCC[C@H](CN(O)C=O)C(=O)N1CCC[C@H]1c1nnc(-c2ccc(C)s2)s1 | 32 (≈ 75.7 µM) | 1 (≈ 2.37 µM) | 2 (≈ 4.73 µM) | 64 (≈ 151 µM) | 2 (≈ 4.73 µM) | 4 (≈ 9.47 µM) | 2 (≈ 4.73 µM) | 0.25 (≈ 0.592 µM) | 0.25 (≈ 0.592 µM) | 32 (≈ 75.7 µM) | 16 (≈ 37.9 µM) |  |  |  |  |  |  |  |  |  | IC50 (Peptide deformylase [2]): 0.0074 µM; IC50 (Peptide deformylase [4]): 0.0985 µM
2 | O=C(O)c1cn(C2CC2)c2cc(N3CCNCC3)c(F)cc2c1=O [CIPROFLOXACIN] | 0.03 (≈ 0.0905 µM) | 0.06 (≈ 0.181 µM) | 8 (≈ 24.1 µM) |  | 0.5 (≈ 1.51 µM) | 4 (≈ 12.1 µM) | 8 (≈ 24.1 µM) | 0.25 (≈ 0.754 µM) | 64 (≈ 193 µM) | 0.5 (≈ 1.51 µM) | 32 (≈ 96.6 µM) |  |  |  |  |  |  |  |  |  | Activity [14]: Toxic; Activity [15]: Toxic; Activity [16]: Toxic; Activity [17]: Toxic
3 | CCCC[C@H](CN(O)C=O)C(=O)N1CCC[C@H]1c1nnc(-c2ccc([N+](=O)[O-])cc2F)s1 | 16 (≈ 34.4 µM) | 0.5 (≈ 1.07 µM) | 0.5 (≈ 1.07 µM) | > 16 | 0.5 (≈ 1.07 µM) | 0.25 (≈ 0.537 µM) | 0.5 (≈ 1.07 µM) | 0.125 (≈ 0.269 µM) | 0.125 (≈ 0.269 µM) | > 16 | > 16 | 8 (≈ 17.2 µM) | 8 (≈ 17.2 µM) | 32 (≈ 68.7 µM) | > 100 | 16 (≈ 34.4 µM) | 16 (≈ 34.4 µM) | 16 (≈ 34.4 µM) | 16 (≈ 34.4 µM) | 16 (≈ 34.4 µM) | Activity (Staphylococcus aureus [20]): 100%; solubility at 2 h [23]: 2020 µg/mL (≈ 4340 µM); IC50 at 24 h [29]: 91.7 µM; MIC (Acinetobacter baumannii [30]): 16 µg/mL (≈ 34.4 µM); MIC (Acinetobacter baumannii [31]): 32 µg/mL (≈ 68.7 µM)
4 | CC(=O)NC[C@H]1CN(c2ccc(N3CCOCC3)c(F)c2)C(=O)O1 [LINEZOLID] | 128 (≈ 379 µM) | 8 (≈ 23.7 µM) | 1 (≈ 2.96 µM) | > 128 | 1 (≈ 2.96 µM) | 1 (≈ 2.96 µM) | 1 (≈ 2.96 µM) | 1 (≈ 2.96 µM) | 1 (≈ 2.96 µM) | 128 (≈ 379 µM) | > 16 | 64 (≈ 190 µM) | 16 (≈ 47.4 µM) | > 128 | > 100 | 128 (≈ 379 µM) | 128 (≈ 379 µM) | 128 (≈ 379 µM) | 128 (≈ 379 µM) | 128 (≈ 379 µM) | IC50 at 24 h [29]: > 100 µM; MIC (Acinetobacter baumannii [30]): 128 µg/mL (≈ 379 µM); MIC (Acinetobacter baumannii [31]): 128 µg/mL (≈ 379 µM)
5 | CCCC[C@H](CN(O)C=O)C(=O)N1CCC[C@H]1C(=O)Nc1ccc(F)c[n+]1[O-] | 64 (≈ 161 µM) | 0.25 (≈ 0.631 µM) | 0.25 (≈ 0.631 µM) | 32 (≈ 80.7 µM) | 0.5 (≈ 1.26 µM) | 0.5 (≈ 1.26 µM) | 0.25 (≈ 0.631 µM) | 0.125 (≈ 0.315 µM) | 0.25 (≈ 0.631 µM) | 32 (≈ 80.7 µM) | > 16 | 16 (≈ 40.4 µM) | 8 (≈ 20.2 µM) | 64 (≈ 161 µM) | > 100 | 32 (≈ 80.7 µM) | 32 (≈ 80.7 µM) | 64 (≈ 161 µM) | 16 (≈ 40.4 µM) | 32 (≈ 80.7 µM) | solubility at 2 h [23]: 1650 µg/mL (≈ 4160 µM); Activity [32]: Toxic; IC50 at 24 h [29]: > 100 µM; MIC (Acinetobacter baumannii [30]): 16 µg/mL (≈ 40.4 µM); MIC (Acinetobacter baumannii [31]): 32 µg/mL (≈ 80.7 µM)
